Test results taken from publication PMC9532951, “Identification and characterization of a novel SNAT2 (SLC38A2) inhibitor reveals synergy with glucose transport inhibition in cancer cells” (Frontiers in Pharmacology, 2022).
Where “and” joins values, the source holds several entries; their conditions need not be identical. Equal entries are not always repeated.

Assays:
SNAT1/2 = experiment: [14C]glutamine uptake in HCC1806 cells; assay type: cell-based, human
Experimental: (§1) Functional characterisation of plasma membrane transporters in human cancer cells was determined at 37°C using an array of radiolabelled amino acid substrates. Modified Hanks HEPES-buffered salts solution (mHBSS; 137 mM NaCl; 5.4 mM KCl; 2.7 mM K2HPO4; 1 mM CaCl2; 0.5 mM MgCl2; 0.44 mM KH2PO4; 0.4 mM MgSO4; 5 mM D-glucose; 5 mM HEPES; pH 7.4) was used to wash and incubate cells where sodium dependent transport was measured, while N-methyl-D-glucamine (NMDG) and potassium salts substituted sodium in NMDG mHBSS to measure sodium independent uptake. For the assay, cells were seeded in 35 mm dishes and, once confluent, were washed thrice with warm mHBSS solution and incubated with mHBSS containing an 100 µM amino acid at a final specific activity of ≥2000 cpm/nmol (U-[^14C]amino acids were from PerkinElmer). After 6 min, cells were washed thrice with ice-cold mHBSS, lysed with 500 µl of 0.1 M HCl, detached with a cell scraper and triturated. A 400 µl aliquot was used for scintillation counting, while the remainder was saved for protein mass quantification by Bradford assay. Transport rates were normalised to the protein content of the culture dish.

SNAT1 = molecular target: T1, SNAT1 (Homo sapiens, UniProt Q9H2H9); experiment: Alanine uptake in HCC1806 D126 (ASCT2ko, SNAT2ko) cells; assay type: cell-based; settings: for Alanine uptake (nmol / mg protein x 6 min): Figure 4B, replicates 1-3; for inhibition of alanine uptake: HCC1806 D126, Figure 4B, betaine and MeAIB 10 mM
T1 construct: SNAT1 remained active as indicated by the Na^+-dependence of alanine uptake; endogenous in cells; host or cells: HCC1806 clone D126 (ASCT2ko, SNAT2ko), amino acid depleted for 24 h
T1 sequence (Q9H2H9 1-487): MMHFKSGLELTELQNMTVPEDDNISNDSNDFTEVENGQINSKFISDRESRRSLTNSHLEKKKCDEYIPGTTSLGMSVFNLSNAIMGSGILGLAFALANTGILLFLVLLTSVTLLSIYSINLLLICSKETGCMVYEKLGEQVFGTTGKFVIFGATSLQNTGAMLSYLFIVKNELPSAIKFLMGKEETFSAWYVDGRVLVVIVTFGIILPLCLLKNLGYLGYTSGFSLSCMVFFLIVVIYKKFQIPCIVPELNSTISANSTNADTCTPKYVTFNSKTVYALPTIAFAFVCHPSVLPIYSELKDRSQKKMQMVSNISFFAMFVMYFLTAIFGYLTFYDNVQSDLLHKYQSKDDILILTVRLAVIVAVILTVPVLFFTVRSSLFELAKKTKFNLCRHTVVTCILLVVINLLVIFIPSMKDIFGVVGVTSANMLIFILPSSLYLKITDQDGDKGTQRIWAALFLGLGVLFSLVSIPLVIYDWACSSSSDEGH
Experimental: To delete the SNAT2 (SLC38A2) gene in modified HCC1806 cells (clone C10 nullizygous for ASCT2 ([Broer et al., 2019])), the GeneArt CRISPR Nuclease Vector with OFP Reporter Kit (Invitrogen; A21174) was employed and complementary 19–20 bp long single-stranded oligonucleotides with overhangs were designed to produce a guide RNA (gRNA) for the Cas9 nuclease that would target exon 7 of the SNAT2 gene. Colonies were analysed by sequencing using the U6 primer included in the GeneArt CRISPR Nuclease Vector with OFP Reporter kit. Plasmids that contained the correct CRISPR nuclease construct were then used to transfect HCC1806 cells with Lipofectamine 2000 (Invitrogen). Prior to transfection, medium was replaced with 2 ml of fresh DMEM/F-12 (supplemented with 10% heat-inactivated FBS and 2 mM glutamine). Plasmid DNA (4 µg) and 10 µL of Lipofectamine 2000 were incubated separately for 5 min at room temperature in 500 µl of Opti-MEM (Invitrogen) before being combined and incubated for a further 30 min at room temperature. The DNA-Lipofectamine complex was then added to the cells in a dropwise manner and allowed to be absorbed over 6 h at 37°C, after which the medium was renewed with fresh DMEM/F-12. Cells were checked for red fluorescence using an EVOS FL cell imaging system (Thermo Fisher Scientific) 48–72 h post transfection. Subsequently, cells were detached using 0.25% Trypsin EDTA. After harvesting and washing thrice with PBS (pH 7.4), cells were resuspended in PBS (pH 7.4) supplemented with 5 mM glucose and 1% dialysed and heat inactivated FBS and passed through a 100 μm cell strainer. The cell filtrate was then pelleted once more and resuspended in the same buffer. Cells were sorted using an ARIA II FACS machine and individually dispensed into the wells of a 96-well plate. Nullizygous clones were identified using a series of assays including the FLIPR membrane potential assay, western blotting and sequencing.
as §1

HCC1806 cells = experiment: Assay of glycolytic activity (extracellular lactate); assay type: cell-based, human; settings: 57E 20 μM
Experimental: Glycolytic activity was measured by detecting extracellular lactate levels over a 48-h time course. HCC1806 and HPAFII cells were seeded on a 24-well plate at approximately 500,000 and 700,000 cells/well, respectively, and incubated in growth medium overnight. The following day, the growth medium was aspirated and each well was washed once with growth medium and 1.3 ml of the treatment solution was added to begin the time-course. In addition to sampling the medium at the start of the experiment, 50 μL was collected from each well at the following time points: 9, 24 and 48 h. Samples were stored at −20°C until further use. Lactate was detected by an enzymatic assay, which consisted of combining in microcentrifuge tubes: 5 μl of sample, 45 μl of water; 25 μl of 40 mM NAD^+; 421 μl of buffer (1M glycine, 600 mM hydrazine sulfate, 5.6 mM EDTA; adjusted to pH 9.5 with sodium hydroxide); and 4 μL of L-lactate dehydrogenase solved at 300U/mL (3.33 mg/ml). The tubes were briefly vortexed and incubated for 15 min before transferring 200 μL of the mixture to a 96-well plate. The calibration curve spanned final concentrations from 5 to 500 μM. Absorbance was measured at 340 nm to detect NADH. Lactate production was normalised to total cellular protein per well as measured by the Bradford assay.

inhibition of alanine uptake (SNAT1) | SMILES | Glutamine uptake (SNAT1/2; AA+ (growth medium), 100 µM glutamine, replicates 1-3) | Glutamine uptake (SNAT1/2; AA- (starvation medium 24 h), 100 µM glutamine, replicates 1-3) | reduction of glutamine uptake (SNAT1/2; amino acid depleted HCC1806 cells (24 h), 100 µM glutamine) | Alanine uptake (nmol / mg protein x 6 min) (SNAT1; 10mM) | inhibition of 100 µM glutamine uptake (SNAT1/2; 50 µM inhibitor, HCC1806 after 24 h amino acid depletion) | Glutamine uptake (nmol / mg protein x 6 min) (SNAT1/2; Figure 3D, replicates 1-3) | discrimination between SNAT2 and SNAT1 (SNAT1) | Alanine uptake (nmol / mg protein x 6 min) (SNAT1; screening compounds) | lactate production (HCC1806 cells)
not inhibited | C[N+](C)(C)CC(=O)O [Betaine, betaine] | 37.8707 nmol / mg protein x 6 min and 45.7014 nmol / mg protein x 6 min and 38.6268 nmol / mg protein x 6 min | 13.5306 nmol / mg protein x 6 min and 16.7838 nmol / mg protein x 6 min and 15.0446 nmol / mg protein x 6 min | 46% | 27.8319 nmol / mg protein x 6 min and 27.8658 nmol / mg protein x 6 min and 25.4928 nmol / mg protein x 6 min |  |  |  |  | 
did not inhibit alanine uptake | Cc1ccc(S(=O)(=O)N(C)c2ccsc2C(=O)NCc2ccccc2C(F)(F)F)cc1 [Compound 57_E, 3-(N-methyl (4-methylphenyl)sulfonamido)-N-(2-trifluoromethylbenzyl)thiophene-2-carboxamide] |  |  |  |  | inhibited a significant fraction of the MeAIB-sensitive component of glutamine uptake | 46.6677 nmol / mg protein x 6 min and 48.4796 nmol / mg protein x 6 min and 48.0528 nmol / mg protein x 6 min | discriminated against the close transporter homologue SNAT1 | 28.3148 nmol / mg protein x 6 min and 26.5203 nmol / mg protein x 6 min and 27.3289 nmol / mg protein x 6 min | increased
